Where only a bound is given, the exact number is not on record here.

For one experiment, the target named is T1, BIR2 domain of XIAP (Homo sapiens, UniProt P98170, C202A/C213G).
T1 construct: 6× Histidine-tagged BIR2 domain, corresponding to amino acids 124-240 of XIAP
Description: TR-FRET assay for BIR2 (inhibition of binding of XIAP BIR2 domain to SMAC-derived Peptide A). The note with it: 6x Histidine-tagged BIR2 domain (amino acids 124-240 of XIAP) 10 nM, Peptide A 20 nM. The procedure:
(§1) TR-FRET Assay for BIR2 and BIR3
(§2) The ability of a test compound to inhibit the binding of BIR2 and/or BIR3 domains of the XIAP protein to Peptide A (a SMAC-derived peptide described below) evidences that the test compound acts as a SMAC-mimetic resulting in reactivation of a cell's apoptotic pathway.
(§3) The peptides were labeled with the fluorescent tags FITC or TAMRA and Kd values were determined by fluorescence polarization assay. […] The peptide sequence was derivatized with biotin to provide […]-(ε-biotin)-OH 1:2 TFA as the substrate for the TR-FRET assay.
The XIAP protein sequence was obtained from the SWISS-PROT protein sequence database and the BIR2 and BIR3 domains were derived from that. The sequence of the BIR2 domain used for the TR-FRET assay is […].
Time-resolved fluorescence resonance energy transfer (TR-FRET) signals were measured 1 hour later at room temperature. Test compound potency was assessed at 10 serially diluted concentrations. Percentage of inhibition at each concentration was determined to generate an IC50 value for each test compound.
In general terms: In TR-FRET formats the signal depends on donor and acceptor labels being close together.

The next experiment deals with T2, BIR3 domain of XIAP (Homo sapiens, UniProt P98170).
T2 construct: BIR3 domain, corresponding to amino acids 241-356 of XIAP
T2 sequence (P98170 with tags, fused parts or gaps): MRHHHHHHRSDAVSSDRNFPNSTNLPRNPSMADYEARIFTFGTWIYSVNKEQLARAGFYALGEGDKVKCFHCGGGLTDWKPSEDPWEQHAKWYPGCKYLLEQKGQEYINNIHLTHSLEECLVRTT
Description: TR-FRET assay for BIR3 (inhibition of binding of XIAP BIR3 domain to SMAC-derived Peptide A). To be noted: 6x Histidine-tagged BIR3 domain (amino acids 241-356 of XIAP) 10 nM, Peptide A 20 nM. The procedure: as §1, §2, §3
The sequence of the BIR3 domain used for the TR-FRET assay is […]
Ten nanomolar of 6× Histidine-tagged BIR2 domain, corresponding to amino acids 124-240 of XIAP, or BIR3 domain, corresponding to amino acids 241-356 of XIAP, was mixed with 20 nM of the peptide […]-(z-biotin)-OH 1:2 TFA, in the presence of 50 mM Tris-Cl, pH 7.5, 100 mM NaCl, 1 mM dithiothreitol (DTT) and 0.1 mg/mL bovine serum albumin (BSA). Following a […] incubation at 37° C., Europium-Streptavidin and Allophycocyanin conjugated anti-Histidine antibody were added to a final concentration of 1.5 nM and 15 nM, respectively. Time-resolved fluorescence resonance energy transfer (TR-FRET) signals were measured 1 hour later at room temperature. Test compound potency was assessed at 10 serially diluted concentrations. Percentage of inhibition at each concentration was determined to generate an IC50 value for each test compound.

T1 sequence (P98170 with tags, fused parts or gaps C202A/C213G): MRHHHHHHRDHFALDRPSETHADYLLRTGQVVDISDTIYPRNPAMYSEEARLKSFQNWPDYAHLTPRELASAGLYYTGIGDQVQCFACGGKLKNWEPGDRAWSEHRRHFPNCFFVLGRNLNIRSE

As for `CCNC(=O)C1Cc2cccnc2N1C(=O)[C@@H](NC(=O)[C@H](C)NC)C(C)C` (mixture of isomers) [Example 1, (R,S)-1-[(S)-3-Methyl-2-((S)-2-methylamino-propionylamino)-butyryl]-2,3-dihydro-1H-pyrrolo[2,3-b]pyridine-2-carboxylic acid ethylamide], the IC50 is 1.04 µM at BIR2 domain of XIAP and greater than 54.8 µM at BIR3 domain of XIAP.

Consider `CN[C@@H](C)C(=O)N[C@H](C(=O)N1CC(C)(C)c2cccnc21)C(C)C` [Example 2, (S)—N—[(S)-1-(3,3-Dimethyl-2,3-dihydro-pyrrolo[2,3-b]pyridine-1-carbonyl)-2-methyl-propyl]-2-methylamino-propionamide], for which the IC50 on BIR2 domain of XIAP was 3.88 µM; at BIR3 domain of XIAP it was greater than 54.8 µM.

Take `CC[C@H](NC)C(=O)N[C@H](C(=O)N1CC(C)(C)c2cccnc21)C(C)C` [Example 3, (S)—N—[(S)-1-(3,3-Dimethyl-2,3-dihydro-pyrrolo[2,3-b]pyridine-1-carbonyl)-2-methyl-propyl]-2-methylamino-butyramide]: the IC50 at BIR2 domain of XIAP is 4.03 µM; at BIR3 domain of XIAP, greater than 54.8 µM.

Turning to `CCNC(=O)C1Cc2cccnc2N1C(=O)[C@@H](NC(=O)[C@H](C)NC)C1CCCCC1` (stereo partly drawn) [Example 4, (R,S)-1-[(S)-2-Cyclohexyl-2-((S)-2-methylamino-propionylamino)-acetyl]-2,3-dihydro-1H-pyrrolo[2,3-b]pyridine-2-carboxylic acid ethylamide], the IC50 is 2.12 µM on BIR2 domain of XIAP and greater than 54.8 µM on BIR3 domain of XIAP.

Take `CCNC(=O)C1Cc2cccnc2N1C(=O)[C@@H](NC(=O)[C@H](CC)NC)C1CCCCC1` (stereo partly drawn) [Example 5, (R,S)-1-[(S)-2-Cyclohexyl-2-((S)-2-methylamino-butyrylamino)-acetyl]-2,3-dihydro-1H-pyrrolo[2,3-b]pyridine-2-carboxylic acid ethylamide]: the IC50 at BIR2 domain of XIAP was 1.86 µM; on BIR3 domain of XIAP, greater than 54.8 µM.

As for `CCNC(=O)C1Cc2cccnc2N1C(=O)[C@@H](NC(=O)[C@H](C)NC)[C@@H](C)CC` (stereo partly drawn) [Example 6, (R,S)-1-[(2S,3S)-3-Methyl-2-((S)-2-methylamino-propionylamino)-pentanoyl]-2,3-dihydro-1H-pyrrolo[2,3-b]pyridine-2-carboxylic acid ethylamide], the figures for the IC50 on BIR2 domain of XIAP and at BIR3 domain of XIAP were 1.28 µM and greater than 54.8 µM, respectively.

On to `CCNC(=O)C1Cc2cccnc2N1C(=O)[C@@H](NC(=O)[C@H](CC)NC)[C@@H](C)CC` (stereo partly drawn) [Example 7, (R,S)-1-[(2S,3S)-3-Methyl-2-((S)-2-methylamino-butyrylamino)-pentanoyl]-2,3-dihydro-1H-pyrrolo[2,3-b]pyridine-2-carboxylic acid ethylamide], for which the figures for the IC50 at BIR2 domain of XIAP and on BIR3 domain of XIAP were 1.03 µM and greater than 54.8 µM, respectively.

On to `CN[C@@H](C)C(=O)N[C@H](C(=O)N1c2ncccc2CC1C(N)=O)C(C)C` (stereo partly drawn) [Example 8, (R,S)-1-[(S)-3-Methyl-2-((S)-2-methylamino-propionylamino)-butyryl]-2,3-dihydro-1H-pyrrolo[2,3-b]pyridine-2-carboxylic acid amide], for which the results for the IC50 on BIR2 domain of XIAP and on BIR3 domain of XIAP were 0.501 µM and greater than 54.8 µM, respectively.

Turning to `CN[C@@H](C)C(=O)N[C@H](C(=O)N1c2ncccc2C[C@@H]1C(=O)Nc1ccccc1OC)C(C)C` [Example 9, (R)-1-[(S)-3-Methyl-2-((S)-2-methylamino-propionylamino)-butyryl]-2,3-dihydro-1H-pyrrolo[2,3-b]pyridine-2-carboxylic acid (2-methoxy-phenyl)-amide], the IC50 at BIR2 domain of XIAP was 12.7 µM; at BIR3 domain of XIAP, greater than 54.8 µM.

As to `CN[C@@H](C)C(=O)N[C@H](C(=O)N1c2ncccc2C[C@H]1C(=O)Nc1ccccc1OC)C(C)C` [Example 10, (S)-1-[(S)-3-Methyl-2-((S)-2-methylamino-propionylamino)-butyryl]-2,3-dihydro-1H-pyrrolo[2,3-b]pyridine-2-carboxylic acid (2-methoxy-phenyl)-amide], the figures for the IC50 at BIR2 domain of XIAP and at BIR3 domain of XIAP were 0.0841 µM and 25.9 µM, respectively.

In the case of `CN[C@@H](C)C(=O)N[C@H](C(=O)N1c2ncccc2C[C@H]1C(=O)Nc1ccccc1)C(C)C` [Example 11, (S)-1-[(S)-3-Methyl-2-((S)-2-methylamino-propionylamino)-butyryl]-2,3-dihydro-1H-pyrrolo[2,3-b]pyridine-2-carboxylic acid phenylamide], the IC50 at BIR2 domain of XIAP is 0.0635 µM; on BIR3 domain of XIAP it was greater than 54.8 µM.

As for `CN[C@@H](C)C(=O)N[C@H](C(=O)N1c2ncccc2C[C@@H]1C(=O)Nc1ccccc1)C(C)C` [Example 12, (R)-1-[(S)-3-Methyl-2-((S)-2-methylamino-propionylamino)-butyryl]-2,3-dihydro-1H-pyrrolo[2,3-b]pyridine-2-carboxylic acid phenylamide], the IC50 at BIR2 domain of XIAP and at BIR3 domain of XIAP was greater than 54.8 µM throughout.

Turning to `CN[C@@H](C)C(=O)N[C@H](C(=O)N1c2ncccc2C[C@@H]1C(=O)Nc1ccccc1C)C(C)C` [Example 13, (R)-1-[(S)-3-Methyl-2-((S)-2-methylamino-propionylamino)-butyryl]-2,3-dihydro-1H-pyrrolo[2,3-b]pyridine-2-carboxylic acid o-tolylamide], the IC50 on BIR2 domain of XIAP and on BIR3 domain of XIAP was greater than 54.8 µM in each case.

On to `CN[C@@H](C)C(=O)N[C@H](C(=O)N1c2ncccc2C[C@H]1C(=O)Nc1ccccc1C)C(C)C` [Example 14, (S)-1-[(S)-3-Methyl-2-((S)-2-methylamino-propionylamino)-butyryl]-2,3-dihydro-1H-pyrrolo[2,3-b]pyridine-2-carboxylic acid o-tolylamide], for which the IC50 is 0.0335 µM on BIR2 domain of XIAP and greater than 54.8 µM at BIR3 domain of XIAP.

Turning to `CN[C@@H](C)C(=O)N[C@H](C(=O)N1c2ncccc2C[C@@H]1C(=O)NCc1ccccc1)C(C)C` [Example 15, (R)-1-[(S)-3-Methyl-2-((S)-2-methylamino-propionylamino)-butyryl]-2,3-dihydro-1H-pyrrolo[2,3-b]pyridine-2-carboxylic acid benzylamide], the IC50 on BIR2 domain of XIAP came to 1.8 µM; at BIR3 domain of XIAP, 45.9 µM.

Turning to `CN[C@@H](C)C(=O)N[C@H](C(=O)N1c2ncccc2C[C@H]1C(=O)NCc1ccccc1)C(C)C` [Example 16, (S)-1-[(S)-3-Methyl-2-((S)-2-methylamino-propionylamino)-butyryl]-2,3-dihydro-1H-pyrrolo[2,3-b]pyridine-2-carboxylic acid benzylamide], the IC50 on BIR2 domain of XIAP stood at 0.159 µM; at BIR3 domain of XIAP, 3.95 µM.

Turning to `CN[C@@H](C)C(=O)N[C@H](C(=O)N1c2ncccc2C[C@H]1C(=O)NCc1cc(Cl)ccc1C)C(C)C` [Example 17, (S)-1-[(S)-3-Methyl-2-((S)-2-methylamino-propionylamino)-butyryl]-2,3-dihydro-1H-pyrrolo[2,3-b]pyridine-2-carboxylic acid 5-chloro-2-methyl-benzylamide], the IC50 on BIR2 domain of XIAP was 0.392 µM; at BIR3 domain of XIAP, 24.3 µM.

For `CN[C@@H](C)C(=O)N[C@H](C(=O)N1c2ncccc2C[C@H]1C(=O)Nc1ccccc1-c1ccccc1)C(C)C` [Example 18, (S)-1-[(S)-3-Methyl-2-((S)-2-methylamino-propionylamino)-butyryl]-2,3-dihydro-1H-pyrrolo[2,3-b]pyridine-2-carboxylic acid biphenyl-2-ylamide], the results for the IC50 at BIR2 domain of XIAP and on BIR3 domain of XIAP were 0.108 µM and 37.6 µM, respectively.

As to `CN[C@@H](C)C(=O)N[C@H](C(=O)N1c2ncccc2C[C@H]1C(=O)Nc1cccc2ccccc12)C(C)C` [Example 19, (S)-1-[(S)-3-Methyl-2-((S)-2-methylamino-propionylamino)-butyryl]-2,3-dihydro-1H-pyrrolo[2,3-b]pyridine-2-carboxylic acid naphthalen-1-ylamide], the IC50 on BIR2 domain of XIAP came out at 0.0545 µM; at BIR3 domain of XIAP, 35.1 µM.

On to `CN[C@@H](C)C(=O)N[C@H](C(=O)N1c2ncccc2C[C@@H]1C(=O)Nc1cnccc1C)C(C)C` [Example 20, (R)-1-[(S)-3-Methyl-2-((S)-2-methylamino-propionylamino)-butyryl]-2,3-dihydro-1H-pyrrolo[2,3-b]pyridine-2-carboxylic acid (4-methyl-pyridin-3-yl)-amide], for which the figures for the IC50 on BIR2 domain of XIAP and on BIR3 domain of XIAP were 1.36 µM and greater than 54.8 µM, respectively.

As for `CN[C@@H](C)C(=O)N[C@H](C(=O)N1c2ncccc2C[C@H]1C(=O)Nc1ccc(F)cc1)C(C)C` [Example 21, (S)-1-[(S)-3-Methyl-2-((S)-2-methylamino-propionylamino)-butyryl]-2,3-dihydro-1H-pyrrolo[2,3-b]pyridine-2-carboxylic acid (4-fluoro-phenyl)-amide], the IC50 is 0.275 µM on BIR2 domain of XIAP and greater than 54.8 µM on BIR3 domain of XIAP.

Usually IC50 stands for the point on the concentration scale where inhibition reaches its midpoint. Read a high IC50 as weaker potency.

Source of the values: US9309248B2, “Azaindolines” (Hoffmann-La Roche Inc., priority 2012, dated 2016).
